Here are results for 25 compounds from patent publication US10828301B2, “2,4-pyrimidinediamine compounds and their uses” (Rigel Pharmaceuticals, Inc, priority 2002, dated 2020).

For test [1], the system named is cultured human mast cells (CHMC). The test can be described thus: CHMC low cell density IgE activation: tryptase and LTC4 assays. Format: cell-based. The settings on record: Low Density CHMC, anti-IgE activation, tryptase readout, read-out: CHMC anti-IgE Tryptase. Put shortly:
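Cultured human mast cells at low density (1000-1500 per well) rested 1 h at 37° C, then stimulated with anti-IgE for 30 min at 37° C. Supernatant tryptase measured with fluorogenic substrate (30 min, room temperature); LTC4 quantified by ELISA on diluted supernatant.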

For test [2] the test system is unchanged. The test can be described thus: CHMC low cell density ionomycin activation: tryptase assay. Format: cell-based. The note with it: Low Density CHMC, ionomycin activation, tryptase readout, read-out: CHMC Ionomycin Tryptase.

SMILES strings stand for the structures.

For `CCOC(=O)CNc1nc(NCC(=O)OCC)c(N)c(C(=O)OCC)n1` [Compound R925865, 5-Amino-N2,N4-bis(ethoxycarbonylmethyl)-6-ethoxycarbonyl-2,4-pyrimidinediamine], the IC50 is over 10 µM in test [1] (Homo sapiens, Mast cell) and over 10 µM in test [2] (Homo sapiens, Mast cell).
For the compound `Fc1cnc(Nc2ccc3c(c2)OCCO3)nc1Nc1ccc(N2CCN(Cc3ccccc3)CC2)cc1` [Compound R945155, N4-[4-(N-Benzylpiperazino)phenyl]-N2-(3,4-ethylenedioxyphenyl)-5-fluoro-2,4-pyrimidinediamine], the IC50 was 1.88 µM in test [1] (Homo sapiens, Mast cell) and over 10 µM in test [2] (Homo sapiens, Mast cell).
For `O=C1COc2cc(Nc3ncc(F)c(Nc4cccc(O)c4)n3)ccc2N1` [Compound R908699, N2-(1,4-Benzoxazin-3-on-7-yl)-5-fluoro-N4-(3-hydroxyphenyl)-2,4-pyrimidinediamine], the IC50 in test [1] (Homo sapiens, Mast cell) was 0.217 µM; in test [2] (Homo sapiens, Mast cell), over 10 µM.
Turning to `Oc1cccc(Nc2cc(Cl)nc(Nc3cccc(O)c3)n2)c1` [Compound R926408, N2,N4-Bis(3-hydroxyphenyl)-6-chloro-2,4-pyrimidinediamine], the IC50 in test [1] (Homo sapiens, Mast cell) is 9.6 µM; in test [2] (Homo sapiens, Mast cell) it was over 10 µM.
For `c1cc2c(cc1Nc1cc(Nc3ccc4c(c3)OCCO4)nc(Nc3ccc4c(c3)OCCO4)n1)OCCO2` [Compound R926516, N2,N4,N6-Tris(3,4-ethylenedioxyphenyl)-2,4,6-pyrimidinetriamine], the IC50 in test [1] (Homo sapiens, Mast cell) was 1 µM; in test [2] (Homo sapiens, Mast cell), over 10 µM.
In the case of `O=c1ccc2cc(Nc3ncc(F)c(Nc4ccc5oc(=O)ccc5c4)n3)ccc2o1` [Compound R926617, N2,N4-Bis(coumarin-6-yl)-5-fluoro-2,4-pyrimidinediamine], the IC50 in test [1] (Homo sapiens, Mast cell) is 9.45 µM; in test [2] (Homo sapiens, Mast cell), over 10 µM.
As to `CC(C)(C)OC(=O)C=Nc1cccc(Nc2ncc(F)c(Nc3cccc(N)c3)n2)c1` [Compound R950178, N4-(3-Aminophenyl)-N2-(3-tert-butoxycarbonylmethyleneaminophenyl)-5-fluoro-2,4-pyrimidinediamine], the IC50 in test [1] (Homo sapiens, Mast cell) was 0.688 µM; in test [2] (Homo sapiens, Mast cell) it was over 10 µM.
On to `Oc1ccc(Nc2ncc(F)c(Nc3ccc(O)cc3)n2)cc1` [Compound R926405, N2,N4-Bis(4-hydroxyphenyl)-5-fluoro-2,4-pyrimidinediamine], for which the IC50 in test [1] (Homo sapiens, Mast cell) is 3.4 µM; in test [2] (Homo sapiens, Mast cell), over 10 µM.
`CC(C)(C)OC(=O)C=Nc1cccc(Nc2ncc(F)c(Nc3cccc(N=CC(=O)OC(C)(C)C)c3)n2)c1` [Compound R950177, N2,N4-Bis(3-tert-butoxycarbonylmethyleneaminophenyl)-5-fluoro-2,4-pyrimidinediamine]: the IC50 is 2.36 µM in test [1] (Homo sapiens, Mast cell) and 8.43 µM in test [2] (Homo sapiens, Mast cell).
For `CNC(=O)C1Cc2cc(Nc3ncc(F)c(Nc4ccc(OC)c(Cl)c4)n3)ccc2O1` (centres unmarked) [Compound R926955, N4-(3-Chloro-4-methoxyphenyl)-5-fluoro-N2-[2,3-dihydro-2-[(N-methylamino)carbonyl]benzofuran-5-yl]-2,4-pyrimidinediamine], the IC50 was 0.36 µM in test [1] (Homo sapiens, Mast cell) and over 10 µM in test [2] (Homo sapiens, Mast cell).
As for `Cc1ccc(-c2ccccc2)cc1Nc1ccnc(Nc2cc(-c3ccccc3)ccc2C)n1` [Compound R925807, N2,N4-Bis(2-methyl-5-phenylphenyl)-2,4-pyrimidinediamine], the IC50 in test [1] (Homo sapiens, Mast cell) is over 10 µM; in test [2] (Homo sapiens, Mast cell) it was over 10 µM.
As for `Oc1ccc(CCNc2ncc(F)c(NCCc3ccc(O)cc3)n2)cc1` [Compound R925791, N2,N4-Bis[2-(4-hydroxyphenyl)ethyl]-5-fluoro-2,4-pyrimidinediamine], the IC50 in test [1] (Homo sapiens, Mast cell) was over 10 µM; in test [2] (Homo sapiens, Mast cell), over 10 µM.
Regarding `c1cc(Nc2ccc3c(c2)OCCO3)nc(Nc2ccc3c(c2)OCCO3)n1` [Compound R926243, N2,N4-Bis(3,4-ethylenedioxyphenyl)-2,4-pyrimidinediamine], the IC50 in test [1] (Homo sapiens, Mast cell) is 3.1 µM; in test [2] (Homo sapiens, Mast cell), over 10 µM.
With `COc1cc(Nc2ncc(F)c(Nc3cccc(O)c3)n2)cc(OC)c1OC` [Compound R926761, 5-Fluoro-N4-(3-hydroxyphenyl)-N2-(3,4,5-trimethoxyphenyl)-2,4-pyrimidinediamine], the IC50 in test [1] (Homo sapiens, Mast cell) is 0.245 µM; in test [2] (Homo sapiens, Mast cell) it was over 10 µM.
As to `COC(=O)c1ccc(CNc2nc(Nc3ccc4c(c3)OCCO4)ncc2C#N)cc1` [Compound R925820, 5-Cyano-N2-(3,4-ethylenedioxyphenyl)-N4-(methoxycarbonylbenzyl)-2,4-pyrimidinediamine], the IC50 in test [1] and in test [2] was over 10 µM each time.
`COc1ccc(-c2ccccc2)cc1Nc1ccnc(Nc2cc(-c3ccccc3)ccc2OC)n1` [Compound R925805, N2,N4-Bis(2-methoxy-5-phenylphenyl)-2,4-pyrimidinediamine]: the IC50 was over 10 µM in test [1] (Homo sapiens, Mast cell) and over 10 µM in test [2] (Homo sapiens, Mast cell).
Take `Cc1cc(Nc2nc(Nc3cccc(O)c3)ncc2F)cc(Cl)c1O` [Compound R940235, N4-(3-Chloro-4-hydroxy-5-methylphenyl)-5-fluoro-N2-(3-hydroxyphenyl)-2,4-pyrimidinediamine]: the IC50 in test [1] (Homo sapiens, Mast cell) is 0.8 µM; in test [2] (Homo sapiens, Mast cell), over 10 µM.
On to `CCOC(=O)c1nc(Nc2cccc(O)c2)nc(Nc2cccc(O)c2)c1N` [Compound R925856, 5-Amino-6-ethoxycarbonyl-N2,N4-bis(3-hydroxyphenyl)-2,4-pyrimidinediamine], for which the IC50 in test [1] (Homo sapiens, Mast cell) was 9.85 µM; in test [2] (Homo sapiens, Mast cell), over 10 µM.
Consider `Oc1cccc(Nc2ncc(F)c(Nn3cccc3)n2)c1` [Compound R935278, 5-Fluoro-N2-(3-hydroxyphenyl)-N4-(1H-pyrrol-1-yl)-2,4-pyrimidinediamine], for which the IC50 in test [1] (Homo sapiens, Mast cell) was 4.75 µM; in test [2] (Homo sapiens, Mast cell) it was over 10 µM.
The corresponding values for `N#Cc1cc(Nc2ncc(F)c(Nc3ccc(O)c(C#N)c3)n2)ccc1O` [Compound R950092, N2,N4-Bis(3-cyano-4-hydroxyphenyl)-5-fluoro-2,4-pyrimidinediamine] are over 10 µM and over 10 µM.
Turning to `COc1cc(Nc2ncc(F)c(Nc3cc(OC)c(OC)c(OC)c3)n2)cc(OC)c1OC` [Compound R926688, N2,N4-Bis(3,4,5-trimethoxyphenyl)-5-fluoro-2,4-pyrimidinediamine], the IC50 in test [1] (Homo sapiens, Mast cell) was 2.25 µM; in test [2] (Homo sapiens, Mast cell), over 10 µM.
On to `CC(C)c1ccc(Nc2ncc(F)c(Nc3ccc4c(c3)OCCO4)n2)cc1` [Compound R926790, N4-(3,4-Ethylenedioxyphenyl)-5-fluoro-N2-(4-isopropylphenyl)-2,4-pyrimidinediamine], for which the IC50 is 0.462 µM in test [1] (Homo sapiens, Mast cell) and 7.41 µM in test [2] (Homo sapiens, Mast cell).
Turning to `CCOC(=O)Nc1ccc(Nc2ncc(F)c(Nc3ccc(NC(=O)OCC)c(O)c3)n2)cc1O` [Compound R926340, N2,N4-Bis(4-ethoxycarbonylamino-3-hydroxyphenyl)-5-fluoro-2,4-pyrimidinediamine], the IC50 in test [1] (Homo sapiens, Mast cell) is 3.23 µM; in test [2] (Homo sapiens, Mast cell), over 10 µM.
The corresponding values for `Fc1cnc(Nc2ccc(N3CCN(Cc4ccccc4)CC3)cc2)nc1Nc1ccc(N2CCN(Cc3ccccc3)CC2)cc1` [Compound R945152, N2,N4-Bis[4-(N-benzylpiperazino)phenyl]-5-fluoro-2,4-pyrimidinediamine] are 6.94 µM and over 10 µM.
In the case of `Oc1cccc(Nc2cc(-c3ccccc3)nc(Nc3cccc(O)c3)n2)c1` [Compound R925812, N2,N4-Bis(3-hydroxyphenyl)-6-phenyl-2,4-pyrimidinediamine], the IC50 in test [1] (Homo sapiens, Mast cell) was 5.8 µM; in test [2] (Homo sapiens, Mast cell), over 10 µM.
